The subject of assay [1] is C. albicans. Kind of assay: Rat venous catheter biofilm model. The format is in vivo. The settings on record: 24 h. On the procedure: The wild-type 12-mer (SEQ ID NO: 4) is protective in a rat venous catheter model of C. albicans infection. C. albicans can form prodigious biofilms on implanted medical devices and the presence of an intravenous catheter is, by itself, a significant risk factor for developing disseminated candidiasis. These infections are notoriously difficult to treat and are associated with the drug resistance characteristic of biofilms. Thus, full-length EntV was tested in a model in which an intravenous catheter is implanted into the jugular vein of rats and inoculated with C. albicans with or without the peptide. After 24 hours, the catheter is removed and sectioned to assess fungal burden by plating for CFUs and by scanning electron microscopy (SEM). […] As the minimal peptide length was determined, this model utilized along with the 12-mer peptide, this time at a lower concentration to probe the extent of protection.
Rat catheter model: The protocol for the rat catheter biofilm was conducted as previously described (Andes, et al., 2004). Briefly, indwelling central venous catheters in rats were inoculated with 1×10^6 cells/mL C. albicans with or without 100 nM EntV or 20 nM 12-mer peptide (group size was 3). To quantitate fungal burden after 24 h, the catheter was removed, and 1 cm of the tip placed in a one milliliter of sterile 0.9% NaCl followed by vortexing. A 1:10 serial dilution of this wash fluid was plated on SDA and colonies counted after 24 h of growth at 35° C. For scanning electron microscopy (SEM), catheters were fixed overnight in 4% formaldehyde and 1% glutaraldehyde in PBS. The catheters were then washed with PBS and treated with 1% osmium tetroxide in PBS for 30 min. Serial ethanol washes and critical point drying were used to dry the segments before they were mounted, and palladium-gold coated. All images were taken using a SEM LEO 1530, with Adobe Photoshop CC (20.0.4 release) used for image compilation.

For assay [2], the system named is C. albicans. Briefly: C. albicans adhesion assay (polystyrene plates, crystal violet). The format is cell-based. The conditions noted are these: vs. DMSO control. On the procedure:
This, like many manifestations of Candida infections, requires adhesion of the fungal cell to surfaces, both biotic and abiotic, whereupon biofilm structures are commonly formed. A model in which binding to plastic surfaces is a measure of the initial stage of biofilm differentiation. In this assay, cells are incubated in polystyrene 96 well plates with the peptides in PBS for one hour and then overlaid with artificial saliva media for 90 minutes before washing and quantitation of adhesion using crystal violet.
C. albicans adhesion assays. The C. albicans adhesion assays were performed using similar techniques as described previously (Gulati et al., 2018). C. albicans strains were grown in YPD broth for 18 h at 30° C. with agitation and then sub-cultured for 4 h in the same conditions. Cells were then collected by centrifugation, washed twice in PBS, and adjusted to a concentration of 1×10^7 cells/ml (measured with Countess II, Life Technologies) in PBS treated with the indicated concentrations of test compounds. The cell suspension was incubated for 1 h at 30° C. with agitation. […]
The adhered cell layer was then stained for 20 minutes with 40 μl of 0.08% crystal violet solution (diluted, Sigma). […] The optical density at 595 nm (OD595) was measured using a Synergy H1 plate reader (BioTek) with Gen5 version 3.08 software (BioTek).

The subject of assay [3] is C. albicans. Kind of assay: Intravenous (disseminated candidiasis) infection model, survival. Format: in vivo, mouse. The conditions noted are these: C. albicans pre-incubated with 100 nM for two hours prior to IV injection. The source says:
The wild-type 12-mer is protective in a systemic mouse model of C. albicans infection. Systemic bloodstream infections by C. albicans are the most life-threatening to patients. Mortality rates from disseminated candidiasis exceed 40% and new treatments are in dire need. Since EntV impairs hyphal morphogenesis and biofilm formation rather than killing C. albicans (Graham et al., 2017), it was unclear if EntV and EntV derivatives would be protective in a systemic infection model. To increase the chances of observing an effect, C. albicans were pre-incubated with 100 nM of EntV or the 12-mer for two hours prior to intravenous (IV) injection of 1×10^5 CFU. […] The median survival of animals injected with C. albicans alone was 7.5 days and all animals had expired by 11 days.
Intravenous infection model. The disseminated candidiasis model was performed as described (Miramon and Lorenz, 2016; Williams and Lorenz, 2020). C. albicans SC5314 was grown overnight in YPD at 30° C., then diluted to a very low concentration and grown in a second overnight. The late-log phase culture was collected by centrifugation, washed in PBS, and diluted to 5×10^6 cells/ml in PBS containing vehicle (0.01% DMSO) or 100 nM EntV or the 12-mer peptide and incubated for 2 hours at room temperature. […] Animals were monitored at least twice daily for 21 days for signs of moribundity.

Regarding VAGQLALWAVQC [12aa], in assay [1] (20 nM), the “Catheter surface biofilm by SEM” value is “largely clear of fungal biofilm” and the “Reduction of catheter fungal burden” value is listed as 1.5 logs. For the same molecule, in assay [2], the “Adhesion of C. albicans to polystyrene” value was “as effective in protecting against C. albicans infection in the worm model and inhibiting surface adhesion as full-length EntV”. In addition, the “Animals alive at end of experiment (day 22)” value in assay [3] is given as “about half the animals were still alive”.

B1: EntV: 68 amino acid active C-terminal form of the E. faecalis bacteriocin EntV (SEQ ID NO: 14) (protein, listed as Enterococcus faecalis)
chain: LGSCVANKIKDEFFAMISISAIVKAAQKKAWKELAVTVLRFAKANGLKTNAIIVAGQLALWAVQCGLS
With B1, the “Catheter fungal burden (CFUs)” value in assay [1] (100 nM, detection limit 100 CFU) is “below the limit of detection”. Moreover, the “Adhesion of C. albicans to polystyrene” value in assay [2] is given as “significantly reduced adhesion to polystyrene”. Besides, the “Animals alive at end of experiment (day 22)” value in assay [3] is reported as “about half the animals were still alive”.

Source of the values: patent US20250250308A1, “METHODS AND COMPOSITIONS WITH ANTIFUNGAL ACTIVITY” (priority 2022, published 2025).
